According to patent US7947827B2 (priority 2006, dated 2011):
Like-named read-outs stand apart in the source and are kept apart here.

What was measured:
[1] = rhesus monkey, in vivo, iv
[2] = set-up: species or system sheep; details: in vivo
[3] = set-up: species or system humans; details: in vivo
[4] = rat, in vivo; cited from earlier work
[5] = rhesus monkey, in vivo, iv; cited from earlier work
[6] = in vivo, po; cited from earlier work
[7] = mouse, in vivo, cited from earlier work
[8] = rat, in vivo, cited from earlier work
[9] = rabbit, in vivo, cited from earlier work
[10] = in vivo, ip; cited from earlier work
[11] = dog, in vivo, cited from earlier work
[12] = pig, in vivo, cited from earlier work
[13] = test system: NQO activity in cultured murine hepatoma cells; details: cited from earlier work
[14] = test system: azoxymethane- and IQ-induced aberrant crypt foci; details: in vivo; cited from earlier work
[15] = rat, in vivo; cited from earlier work; remark: listed apart in the source
[16] = rat, in vivo; cited from earlier work; remark: listed apart in the source
[17] = guinea pig, in vivo; cited from earlier work
[18] = rat, in vivo; cited from earlier work; remark: listed apart in the source
[19] = rat, in vivo; cited from earlier work; remark: listed apart in the source
[20] = in vivo; cited from earlier work
[21] = test system: bone marrow cells of mice; details: mouse, in vivo; cited from earlier work
[22] = mouse, in vivo, po, 2500 mg/kg; cited from earlier work

## COc1cc2c(c3oc(=O)c4c(c13)CCC4=O)[C@@H]1C=CO[C@@H]1O2 [AFB1, aflatoxin B1]
[1]
  terminal half-life (t1/2β) from all routes of excretion: approximately 24 hours
[2]
  t1/2: approximately 24 hours
[3]
  terminal half-life, conservative estimate: less than 24 hours
  time to complete absorption: 0.5 to 1.0 h
[4]
  absorption rate constant (ka): 5.84 ± 0.05 h⁻¹
[5]
  dose eliminated in urine as chloroform extractable, first 24 hours: ~10%
  dose eliminated in urine as unbound, first 24 hours: ~30%
  dose eliminated in urine within first 24 hours: 40%
  dose remaining in the liver at 100 hours: 13.6%
  dose remaining in the plasma at 100 hours: 5.8%
  fecal excretion of dose, 24 to 48 hours: 20%
  fecal excretion of dose, 48 to 72 hours: ~6%
  fecal excretion of dose, 72 to 100 hours: ~3%
  fecal excretion of dose, first 24 hours: ~4%
  total excreta after 100 hours, of administered dose: 73.1%
[6]
  total dose excreted in first 48 hours: approximately 90%

## Sodium chlorophyllin copper complex
[7]; im
  LD50: > 500 mg/kg
[7]; ip
  LD50: > 1000 mg/kg
[7]; iv
  LD50: > 400 mg/kg
[8]; im
  LD50: > 250 mg/kg
[8]; ip
  LD50: > 1000 mg/kg
[8]; iv
  LD50: > 250 mg/kg
[9]; im
  LD50: > 60 mg/kg
[9]; ip
  LD50: > 500 mg/kg
[9]; iv
  LD50: > 200 mg/kg
[10]
  LD50: > 60 mg/kg
[11]; im
  LD50: > 50 mg/kg
[11]; ip
  LD50: > 200 mg/kg
[11]; iv
  LD50: > 200 mg/kg
[12]; im
  LD50: > 20 mg/kg
[12]; iv
  LD50: > 10 mg/kg

## chlorin e4 ethyl ester
[13]
  concentration required to double NQO activity (CD): 20 µM
  potency as NQO inducer relative to Chl: 50 times

## chlorophyll
[14]
  azoxymethane- and IQ-induced aberrant crypt foci: inhibited

## potassium sodium chlorophyllin copper complex [sodium potassium chlorophyllin]
[7]; po
  LD50: 7000 mg/kg
[15]
  adverse effects: without any adverse effects except weight loss related to food refusal
[16]
  effects in offspring: locomotory difficulties and skeletal muscle defects
[17]
  ill effects or pathological change: without ill effects or pathological change
[18]
  Cu toxicity or deposition in liver, kidney or spleen: no evidence of Cu toxicity or deposition
  gross or histopathological changes: No gross or histopathological changes
[19]
  copper storage in liver, kidney or spleen: No copper storage occurred
[20]
  scurvy: no evidence of scurvy

## sodium copper chlorophyllin
[13]
  concentration required to double NQO activity (CD): 30 µM
  potency as NQO inducer relative to Chl: ~10 times
[21]
  reducing clastogenicity from cesium chloride, mercuric chloride and cobalt chloride: demonstrated efficacy
[22]
  ill effects: without any ill effects
